Patent US7384911B2, “Peptides having antimicrobial properties and compositions containing them, notably for the preservation of foodstuffs” (priority 2002, dated 2008)
Residues, ends and D or L forms follow the SMILES beside them.

Columns and labels:
Aerococcus viridans = format: cell-based; conditions: interval [a]-[b], tested spheniscin-2 0.2-100 μM, MSI-94 0.2-10 μM
Method: (§1) The bacteria to be tested were suspended in a suitable nutritive medium of the “poor broth” type corresponding to a solution of bactotryptone at 10 g/l with the addition of NaCl 5 g/l in ultrapure water.
(§2) Antimicrobial activities were detected by a growth inhibition test in microtitration plates (Hétru and Bulet, 1997). One deposited […] of each fraction collected in mictrotitration plates in the presence of 90 μl of culture medium containing the microorganisms (at a final concentration equivalent to 1 mDO at 600 nm).
(§3) For the bacteria and the yeast, incubation was performed at 30° C. for 12-24 h under agitation. The growth of the microorganisms was measured by monitoring the absorbance at 600 nm by means of a spectrophotometer reader of microtitration plates.
(§4) The antimicrobial activities expressed in minimal inhibitory concentration (MIC) of spheniscin 2 (concentrations comprised between 0.2 μM and 100 μM) were determined against bacteria, yeasts and fungi using a growth inhibition test in liquid medium in microtitration plates (for the detailed protocol see example 2.4 as well as Hétru and Bulet, 1997).
(§5) The minimal growth inhibitory concentration (MIC) corresponds to the interval [a]-[b] in which [a] is the strongest concentration tested for which the microorganism grows and [b] is the weakest concentration tested starting at which there is 100% inhibition of growth of the microorganism (Casteels and Tempst, 1994). The control peptides were MSI-94 (a peptide of the mangainin family stemming from the skin of the batrachian Xenopus laevis and presenting a broad spectrum of antimicrobial activity; Maloy and Kari, 1995) for testing against the bacteria and yeasts; and thanatin (an antifungal peptide stemming from the insect Podisus maculiventris; Fehlbaum et al., 1996) for testing against the filamentous fungi.

B. megaterium = format: cell-based; conditions: interval [a]-[b], tested spheniscin-2 0.2-100 μM, MSI-94 0.2-10 μM
Method: as §1, §2, §3, §4, §5

Bacillus subtilis = format: cell-based; conditions: interval [a]-[b], tested spheniscin-2 0.2-100 μM, MSI-94 0.2-10 μM
Method: as §1, §2, §3, §4, §5

Escherichia coli SBS 363 = format: cell-based; conditions: interval [a]-[b], tested spheniscin-2 0.2-100 μM, MSI-94 0.2-10 μM
Method: as §1, §2, §3, §4, §5

Klebsiella pneumoniae = format: cell-based; conditions: interval [a]-[b], tested spheniscin-2 0.2-100 μM, MSI-94 0.2-10 μM
Method: as §1, §2, §3, §4, §5

Listeria monocytogenes = format: cell-based; conditions: interval [a]-[b], tested spheniscin-2 0.2-100 μM, MSI-94 0.2-10 μM
Method: as §1, §2, §3, §4, §5

Micrococcus luteus = format: cell-based; conditions: interval [a]-[b], tested spheniscin-2 0.2-100 μM, MSI-94 0.2-10 μM
Method: as §1, §2, §3, §4, §5

Nocardia asteroides = format: cell-based; conditions: interval [a]-[b], tested spheniscin-2 0.2-100 μM, MSI-94 0.2-10 μM
Method: as §1, §2, §3, §4, §5

[1] = system: Pseudomonas aeruginosa ATCC 82118; format: cell-based; conditions: interval [a]-[b], tested spheniscin-2 0.2-100 μM, MSI-94 0.2-10 μM
Method: as §1, §2, §3, §4, §5

S. haemolyticus = format: cell-based; conditions: interval [a]-[b], tested spheniscin-2 0.2-100 μM, MSI-94 0.2-10 μM
Method: as §1, §2, §3, §4, §5

Salmonella typhimurium = format: cell-based; conditions: interval [a]-[b], tested spheniscin-2 0.2-100 μM, MSI-94 0.2-10 μM
Method: as §1, §2, §3, §4, §5

Staphylococcus aureus = format: cell-based; conditions: interval [a]-[b], tested spheniscin-2 0.2-100 μM, MSI-94 0.2-10 μM
Method: as §1, §2, §3, §4, §5

B. cereus ATCC 11778 = format: cell-based, Bacillus cereus; conditions: interval [a]-[b], tested spheniscin-2 0.2-100 μM, MSI-94 0.2-10 μM
Method: as §1, §2, §3
as §4, with “1997). […]” for “1997).”

S. saprophyticus = format: cell-based, Staphylococcus saprophyticus; conditions: interval [a]-[b], tested spheniscin-2 0.2-100 μM, MSI-94 0.2-10 μM
Method: as §1, §2, §3
as §4, with “1997). […]” for “1997).”

E. coli 1106 = format: cell-based, Escherichia coli; conditions: interval [a]-[b], tested spheniscin-2 0.2-100 μM, MSI-94 0.2-10 μM
Method: as §1, §2, §3
as §4, with “1997). […]” for “1997).”

[2] = system: V. anguillarum ATCC 19264; test: MIC, growth inhibition test in liquid medium in microtitration plates; format: cell-based; conditions: interval [a]-[b], tested spheniscin-2 0.2-100 μM
Method: as §1, §2, §3
as §4, with “1997). […]” for “1997).”

[3] = system: Vibrio metshnikovii NCTC 8483; test: as above; format: cell-based; conditions: interval [a]-[b], tested spheniscin-2 0.2-100 μM
Method: as §1, §2, §3
as §4, with “1997). […]” for “1997).”

C. tropicalis = format: cell-based; conditions: interval [a]-[b], tested spheniscin-2 0.2-100 μM, MSI-94 0.2-10 μM
Method: (§6) The yeast strain C. albicans to be tested was incubated in a suitable culture medium of the “Sabouraud” type.
as §2, §3, §4
(§7) The minimal growth inhibitory concentration (MIC) corresponds to the interval [a]-[b] in which [a] is the strongest concentration tested for which the microorganism grows and [b] is the weakest concentration tested starting at which there is 100% inhibition of growth of the microorganism (Casteels and Tempst, 1994). […]

Candida glabrata = format: cell-based; conditions: tested spheniscin-2 0.2-100 μM, MSI-94 0.2-10 μM, ND = activity not detected in range tested
Method: as §6, §2, §3, §4, §7

C. albicans IHEM 8060 = format: cell-based, Candida albicans; conditions: interval [a]-[b], tested spheniscin-2 0.2-100 μM, MSI-94 0.2-10 μM
Method: as §6, §2, §3, §4, §7

Aspergillus fumigatus = format: cell-based; conditions: interval [a]-[b], tested spheniscin-2 0.2-100 μM, thanatin 0.4-41.1 μM
Method: (§8) The spores of the fungus N. crassa to be tested were suspended in a suitable culture medium of the “potato infusion—glucose” type. Preference was given to the use of 12 g of potato dextrose broth medium (1/2 PDB, Difco) per 1 liter of demineralized water. Two antibiotics were added to the culture medium: cefotaxime (final concentration at 100 μg/ml) and tetracycline (final concentration at 10 μg/ml).
as §2
(§9) For the filamentous fungi, the incubation was performed at 37° C. in a humid atmosphere for 48 hours.
as §4, with “1997). […]” for “1997).”

Neurospora crassa = format: cell-based; conditions: interval [a]-[b], tested spheniscin-2 0.2-100 μM, thanatin 0.4-41.1 μM
Method: as §8, §2, §9
as §4, with “1997). […]” for “1997).”

**Q.** Which MIC (Aerococcus viridans) does the source give for `CC[C@H](C)[C@@H]1NC(=O)[C@@H]2CCCN2C(=O)[C@H]([C@@H](C)CC)NC(=O)[C@H](CO)NC(=O)[C@@H]2CCCN2C(=O)[C@H](Cc2ccccc2)NC(=O)[C@H](CCCNC(=N)N)NC(=O)[C@@H]2CSSC[C@@H](C(=O)N[C@@H](CCCNC(=N)N)C(=O)N[C@@H](CCCNC(=N)N)C(=O)N[C@H](C(=O)N[C@@H](Cc3c[nH]c4ccccc34)C(=O)O)C(C)C)NC(=O)[C@@H]3CSSC[C@H](NC(=O)[C@H](CC(C)C)NC(=O)CNC(=O)[C@H](Cc4ccccc4)NC(=O)[C@@H](N)CO)C(=O)N[C@@H](CCCNC(=N)N)C(=O)N[C@@H](CC(C)C)C(=O)N[C@@H](CCCNC(=N)N)C(=O)N[C@@H](CCCNC(=N)N)C(=O)NCC(=O)N[C@@H](Cc4ccccc4)C(=O)N[C@@H](CSSC[C@H](NC(=O)[C@H](CCCNC(=N)N)NC(=O)CNC1=O)C(=O)N[C@@H](CO)C(=O)N[C@@H](CCCNC(=N)N)C(=O)N[C@@H](Cc1ccccc1)C(=O)N[C@@H](C(C)C)C(=O)N[C@@H](CCC(N)=O)C(=O)N3)C(=O)N[C@@H](C)C(=O)N[C@@H](CCCNC(=N)N)C(=O)NCC(=O)N[C@@H](CCCNC(=N)N)C(=O)N2` [spheniscin-2] (HELM PEPTIDE1{S.F.G.L.C.R.L.R.R.G.F.C.A.R.G.R.C.R.F.P.S.I.P.I.G.R.C.S.R.F.V.Q.C.C.R.R.V.W}$PEPTIDE1,PEPTIDE1,5:R3-33:R3|PEPTIDE1,PEPTIDE1,12:R3-27:R3|PEPTIDE1,PEPTIDE1,17:R3-34:R3$$$V2.0; N-terminus and C-terminus assumed) here?
**A.** 0.4 to 0.8 µM

**Q.** And the MIC (B. megaterium)?
**A.** 0.4 to 0.8 µM

**Q.** What about the MIC (Bacillus subtilis) of the same compound?
**A.** 0.8 to 1.5 µM

**Q.** What about the MIC (Escherichia coli SBS 363) of the same compound?
**A.** 0.8 to 1.5 µM

**Q.** And the MIC (Klebsiella pneumoniae)?
**A.** 50 to 100 µM

**Q.** What about the MIC (Listeria monocytogenes) of the same compound?
**A.** 6 to 12 µM

**Q.** And the MIC (Micrococcus luteus)?
**A.** 1.5 to 3 µM

**Q.** What about the MIC (Nocardia asteroides) of the same compound?
**A.** 0.8 to 1.5 µM

**Q.** And the MIC [1]?
**A.** 6 to 12 µM

**Q.** What about the MIC (S. haemolyticus) of the same compound?
**A.** 1.5 to 3 µM

**Q.** What about the MIC (Salmonella typhimurium) of the same compound?
**A.** 6 to 12 µM

**Q.** And the MIC (Staphylococcus aureus)?
**A.** 1.5 to 3 µM

**Q.** What about the MIC (B. cereus ATCC 11778) of the same compound?
**A.** 3 to 6 µM

**Q.** What about the MIC (S. saprophyticus) of the same compound?
**A.** 1.5 to 3 µM

**Q.** And the MIC (E. coli 1106)?
**A.** 1.5 to 3 µM

**Q.** And the MIC [2]?
**A.** 25 to 50 µM

**Q.** And the MIC [3]?
**A.** 25 to 50 µM

**Q.** What about the MIC (C. tropicalis) of the same compound?
**A.** 1.5 to 3 µM

**Q.** And the MIC (Candida glabrata)?
**A.** >100 µM

**Q.** And the MIC (C. albicans IHEM 8060)?
**A.** 50 to 100 µM

**Q.** What about the MIC (Aspergillus fumigatus) of the same compound?
**A.** 3 to 6 µM

**Q.** And the MIC (Neurospora crassa)?
**A.** 3 to 6 µM
